Test results: patent EP2017264A1, “Substituted phenyl propargyl compounds, method for their manufacture and their use as herbicides and plant growth regulators” (BAYER CROPSCIENCE AG, priority 2007, dated 2009)

Legend:
[1] = test system: Echinochloa crus-galli, Setaria viridis, Stellaria media und Veronica persica; test: Pre-emergence weed control, greenhouse pot test; format: in vivo; conditions: Aufwandmenge von 1,28 kg oder weniger Aktivsubstanz pro Hektar, visual rating after 3 bis 4 Wochen vs untreated controls
From the text: Samen bzw. Rhizomstücke von mono- und dikotylen Unkrautpflanzen wurden in Plastiktöpfen in sandiger Lehmerde ausgelegt und mit Erde abgedeckt. Die in Form von benetzbaren Pulvern oder Emulsionskonzentraten formulierten erfindungsgemäßen Verbindungen wurden dann als wäßrige Suspension bzw. Emulsion mit einer Wasseraufwandmenge von umgerechnet 600 bis 800 l/ha in unterschiedlichen Dosierungen auf die Oberfläche der Abdeckerde appliziert.
Nach der Behandlung wurden die Töpfe im Gewächshaus aufgestellt und unter guten Wachstumsbedingungen für die Unkräuter gehalten. Die optische Bonitur der Pflanzen- bzw. Auflaufschäden erfolgte nach dem Auflaufen der Versuchspflanzen nach einer Versuchszeit von 3 bis 4 Wochen im Vergleich zu unbehandelten Kontrollen. Wie die Testergebnisse zeigten, wiesen die erfindungsgemäßen Verbindungen eine gute herbizide Vorauflaufwirksamkeit gegen ein breites Spektrum von Ungräsern und Unkräutern auf.

[2] = physchem
Description: "LogP" = Verteilungskoeffizient in einem Zweiphasengemisch aus n-Octanol und Wasser.
Die log P-Daten wurden in Übereinstimmung mit der EEC Direktive 79/831, Anlage V.A8 (Annex V.A8) mittels HPLC (High Performance Liquid Chromatography) auf einer Umkehrphase-Säule (reversed-phase column) (C18) mit folgenden Methoden bestimmt: Temperatur: 40°C; Mobile Phase: 0,1 % bzw. 0,06 %ige wässrige Ameisensäure oder 0,1 % wässriger Phosphorsäure und Acetonitril; linearer Gradient von 10% Acetonitril bis 90% bzw. 95 % Acetonitril. Die Kalibrierung wurde ausgeführt mit Hilfe unverzweigter Alkan-2-one (bestehend aus 3 bis 13 bzw.16 Kohlenstoff-Atomen) mit bekannten IogP-Werten (Bestimmung der IogP-Werte über die Retentionszeiten mittels linearer Interpolation zwischen zwei nachfolgenden Alkanonen).

[3] = test system: Echinochloa crus-galli, Setaria viridis, Abuthilon theophrasti, Amaranthus retroflexus und Veronica persica; test: Post-emergence weed control, greenhouse pot test; format: in vivo; conditions: three-leaf stage, Aufwandmenge von 1,28 kg und weniger Aktivsubstanz pro Hektar, visual rating after ca. 3 bis 4 Wochen vs untreated controls
From the text: Samen bzw. Rhizomstücke von mono- und dikotylen Unkräutern wurden in Plastiktöpfen in sandigem Lehmboden ausgelegt, mit Erde abgedeckt und im Gewächshaus unter guten Wachstumsbedingungen angezogen. Drei Wochen nach der Aussaat wurden die Versuchspflanzen im Dreiblattstadium behandelt. Die als Spritzpulver bzw. als Emulsionskonzentrate formulierten erfindungsgemäßen Verbindungen wurden in verschiedenen Dosierungen mit einer Wasseraufwandmenge von umgerechnet 600 bis 800 I/ha auf die grünen Pflanzenteile gesprüht. Nach ca. 3 bis 4 Wochen Standzeit der Versuchspflanzen im Gewächshaus unter optimalen Wachstumsbedingungen wurde die Wirkung der Präparate optisch im Vergleich zu unbehandelten Kontrollen bonitiert. Die erfindungsgemäßen Mittel wiesen auch im Nachauflauf eine gute herbizide Wirksamkeit gegen ein breites Spektrum wirtschaftlich wichtiger Ungräser und Unkräuter auf. Beispielsweise zeigten die Beispiele Nr.

SMILES: COc1ccccc1C=NOC(C)C#Cc1cccc(SC)c1 (stereo not drawn) [Beispiel 1.301]
- herbizide Wirkung gegen Schadpflanzen im Vorauflaufverfahren [1]: sehr gute herbizide Wirkung
- chromatographic logP [2]: 4.85
- herbizide Wirkung gegen Schadpflanzen im Nachauflaufverfahren [3]: sehr gute herbizide Wirkung

SMILES: Cc1cccc(C=NOC(C)C#Cc2cccc([S+](C)[O-])c2)n1 (stereo not drawn) [Beispiel 3.086]
- herbizide Wirkung gegen Schadpflanzen im Vorauflaufverfahren [1]: sehr gute herbizide Wirkung
- chromatographic logP [2]: 1.57
- herbizide Wirkung gegen Schadpflanzen im Nachauflaufverfahren [3]: sehr gute herbizide Wirkung

SMILES: COc1ncc(C=NOCC#Cc2cccc(SC)c2)cc1F [Beispiel 5.040]
- herbizide Wirkung gegen Schadpflanzen im Vorauflaufverfahren [1]: sehr gute herbizide Wirkung
- chromatographic logP [2]: 4.23
- herbizide Wirkung gegen Schadpflanzen im Nachauflaufverfahren [3]: sehr gute herbizide Wirkung
